# Reference: the NIST ThermoML archive (doi:10.1016/j.tca.2011.02.016)
# ± gives the expanded uncertainty stated by the source.
# Legend:
# [1] = molar heat capacity at constant pressure; conditions: 298.15 K; 101.33 kPa; Liquid; Small sample (50 mg) DSC
# [2] = 298.15 K; 101.33 kPa; Liquid; Pycnometric method
structure (smiles),measurement,setting,value
Cn1cc[n+](CCO)c1.N#C[N-]C#N [3-(2-hydroxyethyl)-1-methyl-1H-imidazol-3-ium dicyanoazanide],molar heat capacity at constant pressure,[1],231.85 ± 3.9 J/K/mol
same,mass density,[2],1120 ± 10 kg/m3
